Measured values: US5230998A, “Method for the prescreening of drugs targeted to the V3 hypervariable loop of the HIV-1 envelope glycoprotein gp 120” (priority 1991, dated 1993)

What was measured:
[1] = molecular target: T1, HIV-1 gp120 V3 hypervariable loop (Human immunodeficiency virus type 1 group M subtype B, UniProt P03375); assay: biochemical; format: binding; for Inhibitory activity: key: Chemicals with inhibitory activity are indicated by +
T1 construct: Polystyrene plates coated with recombinant gp120 and gp160, respectively; purchased American Bio-Technologies, Inc., Cambridge, Mass; host or cells: baculovirus expression system
Procedure, shortened: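 Inhibition RIA/ELISA: gp120/gp160-coated or synthetic peptide-coated wells (gp120/gp41 of HIV-1 BH10 and V3 loops of 21 isolates) incubated overnight at 25 °C with rabbit anti-peptide antisera (1:150, or 1:1,000 for V3) ± compound (ATA 50 μg/ml). Bound IgG detected with 125I-anti-rabbit IgG; percent inhibition versus no-compound control.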

[2] = molecular target: peptide (492-518) (Human immunodeficiency virus type 1 BH10, UniProt P03375); assay: Inhibition by ATA of reaction between peptide and homologous antibodies (FIG. 1B); format: binding, HIV-1 BH 10; details: ATA 50 μg/ml
Experimental: (§1) FIG. 1 comprises four bar graphs concerning the interaction of aurintricarboxylic acid (ATA) with the V3 hypervariable loop of gp120 and with distinct peptides derived from the sequence of gp160. FIG. 1A: Inhibitory effect of ATA (50 μg/ml) on the reaction of antibodies to peptides from the sequence of HIV-1 gp160 with gp120 or gp160. gp120-coated wells were used for antisera to peptides from gp120 and gp160-coated wells were used with antisera to peptides from gp41. FIG. 1B: Inhibitory effect of ATA (50 μg/ml) on the reaction between antibodies to peptides from gp120/gp41 and homologous peptides. FIG. 1C: binding of ATA to wells coated with distinct peptides from the sequence of gp160, as determined by subsequent binding of anti-ATA antibodies. FIG. ID: Net electric charge of peptides from the sequence of gp160, determined by subtracting the number of aspartic (D) and glutamic (E) residues from the sum of lysine (K) and arginine (R) residues present in distinct segments of the gp160 sequence. The horizontal dotted line indicates the boundary between non-significant and significant inhibition, established from three times repeated experiments.
(§2) Wells of 96 well polystyrene plates (Immulon 2, Dynatech Laboratories, Inc., Chantilly, Va.) were coated with synthetic peptides (200 μl; 20μg/ml in 0.1 M Tris-HCl, pH 8.8) overnight at 20° C. The peptides were from the sequence of HIV-1, clone BH 10 envelope glycoproteins gp120 and gp41 (Neurath, A. R., Strick, N., and Lee, E. Y. S. (1990), "B-cell Epitope Mapping of Human Immunodeficiency virus (HIV-1) Envelope Glycoprotein with Long (19 to 36-residue) Synthetic Peptides", J. Gen. Virol., 71., 85-95) and from V3 hypervariable loops of 21 distinct HIV-1 isolates (clones) Neurath, A. R., and Strick, N., (1990), "Confronting the Hypervariability of an Immunodominant Epitope Eliciting Virus Neutralizing Antibodies from the Envelope Glycoprotein of the Human Immunodeficiency Virus Type 1 (HIV-1)", Molec. Immunol., 27, 539-549. The latter peptides corresponded to full-length V3 loops generated by disulfide bonds between N- and C- terminal cysteine residues. After washing with 0.14 M NaCl, 0.01 M Tris, 0.02% NaN3 (TS), the wells were postcoated with a mixture of bovine serum albumin (BSA) and gelatine (10 and 2.5 mg/ml, respectively) in TS. […]
(§3) To define sites on gp120/gp41 reacting with ATA, the inhibitory effect of this compound was studied by RIA tests using gp120- and gp160-coated wells, respectively, and antisera (final dilutions 1:150) against synthetic peptides from the entire sequence of gp120/gp41 of HIV-1 BH 10. […] Attached rabbit IgG was detected using ^125 I-labeled anti-rabbit IgG, as described before (Neurath et al., 1990, J. Gen. Virol., 71, 85-95). […]

[3] = molecular target: peptide (331-361) (Human immunodeficiency virus type 1 BH10, UniProt P03375); assay: as above; format: binding, HIV-1 BH 10; details: ATA 50 μg/ml
Experimental: as §1, §2, §3

[4] = molecular target: T2, V3 hypervariable loop peptide (303-338) (Human immunodeficiency virus type 1 BH10, UniProt P03375); assay: as above; format: binding, HIV-1 BH 10; details: ATA 50 μg/ml
T2 construct: cut from Env gp160
Experimental: as §1, §2, §3

Structure (SMILES) | extent of inhibition of reaction between gp120 and anti-V3 antibodies versus antibody dilution ([1]; ATA 50 μg/ml, FIG. 3) | inhibition of attachment to gp120 of antibodies against the (303-338) segment ([1]; ATA 50 μg/ml, antisera 1:150, significant inhibition (FIG. 1A)) [%] | inhibition of reaction of peptide with homologous antibodies [2] | inhibition of reaction of peptide with homologous antibodies [3] | inhibition of reaction of peptide with homologous antibodies [4] | Inhibitory activity ([1]; Table 1, reaction between HIV-1 gp120 and anti-V3 loop antibodies) | inhibition at 50 µg/mL ([1]; read-out: percentage of inhibition) [%]
O=C(O)C1=CC(=C(c2ccc(O)c(C(=O)O)c2)c2ccc(O)c(C(=O)O)c2)C=CC1=O [substance #122, aurintricarboxylic acid] | correlated with the dilution of antibodies | ≥ 22 | did not inhibit the reaction between this peptide and homologous anti-peptide antibodies | Inhibition was also observed | most dramatically inhibited |  | 
C=Cc1c(C)c2cc3nc(c(CC(=O)O)c4[nH]c(cc5nc(cc1[nH]2)C(C)=C5CC)c(C)c4C(=O)O)[C@@H](CCC(=O)O)[C@@H]3C [substance #149, chlorine e6] |  |  |  |  |  | + | 76.3
